# Assay results: patent US11414415B2, “6H-imidazo[4,5,1-ij]quinolone, synthesis method and use thereof” (HANGZHOU NORMAL UNIVERSITY, priority 2020, dated 2022)
# Tested on: A549 (lung cancer cell)
# Assay: MTT tumor cell proliferation assay on A549 lung cancer cells
# Format: cell-based
# Details: Homo sapiens, 48 h, 44 h culture + 4 h MTT, read at 570 nm, sample concentration 0.5 mg/mL (water as solvent)
# Description: Biological activity assay was conducted on compounds I-d to I-f prepared in the above examples:
# Original osimertinib was used as control.
# Specific procedure was as follows: plating A549 cells in a 96-well plate at a cell density of 2×10^4 cells/mL; after placing in an incubator overnight at 37° C. in 5% CO2, adding samples to be screened (sample concentrations are given in Table 1; medication groups were given 10 μL of the drug at the corresponding concentration per well, and blank control group was given 10 μL of PBS per well); after culturing for 44 h, adding 10 μL of MTT per well to culture for additional 4 h; dissolving in DMSO, shaking, and detecting on a microplate reader at 570 nm.
# Inhibitory concentration 50 (IC50) values of 6H-imidazo[4,5,1-ij]quinolone derivatives with structures as shown in formulas I-d to I-f and control drug original osimertinib against A549 (lung cancer cell) were detected.
row,Compound,IC50 [µM]
1,O=c1ccn2c(C3CC3)nc3cccc1c32 [I-e],21.1
2,COc1cc2nc(-c3ccccc3)n3ccc(=O)c(c1)c23 [I-f],12.3
3,"C=CC(=O)Nc1cc(Nc2nccc(-c3cn(C)c4ccccc34)n2)c(OC)cc1N(C)CCN(C)C [Osimertinib, osimertinib, reference compound]",9.74

# The remaining lines, values ahead:
row,IC50 [µM],Compound
1,11.2,Cc1ccc(-c2nc3cccc4c(=O)ccn2c34)cc1 [I-a]
2,15.3,O=c1ccn2c(-c3ccc(F)cc3)nc3cccc1c32 [I-b]
3,16.2,O=c1ccn2c(-c3ccccc3Cl)nc3cccc1c32 [I-c]
4,9.9,O=c1ccn2c(-c3cccs3)nc3cccc1c32 [I-d]

# Same assay, conditions: statement in words
row,Compound,IC50 value compared with osimertinib
1,O=c1ccn2c(-c3cccs3)nc3cccc1c32 [I-d],equivalent to anti-lung cancer drug osimertinib
